One may read the EC50 as the midpoint of the concentration-response curve.

This assay has as its target T1, human M4 muscarinic acetylcholine receptor (Homo sapiens, UniProt P08173).
T1 construct: expressed in transfected cells; host or cells: CHO-K1
T1 sequence (P08173 1-479): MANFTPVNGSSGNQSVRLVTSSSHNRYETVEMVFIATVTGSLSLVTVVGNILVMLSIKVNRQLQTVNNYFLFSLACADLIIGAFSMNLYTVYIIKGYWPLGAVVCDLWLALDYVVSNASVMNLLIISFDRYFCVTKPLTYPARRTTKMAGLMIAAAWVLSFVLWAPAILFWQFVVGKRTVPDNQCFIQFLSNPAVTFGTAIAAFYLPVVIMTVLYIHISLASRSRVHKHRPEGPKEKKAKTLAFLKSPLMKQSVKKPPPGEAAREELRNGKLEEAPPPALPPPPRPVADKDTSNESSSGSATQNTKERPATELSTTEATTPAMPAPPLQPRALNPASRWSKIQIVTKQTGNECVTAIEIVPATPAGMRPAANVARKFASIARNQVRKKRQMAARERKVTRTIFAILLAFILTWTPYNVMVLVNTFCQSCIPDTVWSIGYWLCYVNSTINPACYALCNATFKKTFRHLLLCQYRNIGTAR
Briefly: human FLIPR-based M4 PAM assay (CHO-K1 cells with human M4 receptor and Gαqi5, calcium dye fluorescence, acetylcholine at 20% of maximum response). It counts as cell-based. Particulars: inflection point (IP) of 4 parameter logistic dose response curve, human M4 receptor + Gαqi5, FLIPR Tetra. Here is the method: In a typical experiment the M4 muscarinic acetylcholine receptor modulating activity of the compounds of the present invention was determined in accordance with the following experimental method. CHO-K1 cells stably transfected with human M4 receptor and chimeric G-protein Gαqi5 (Coward P, et al., Analytical Biochemistry, 270:242-248 (1999)) are thawed from liquid N2 storage, resuspended in growth medium, plated in black, clear bottom 384 well plates, and incubated 16-20 hours at 37° C., 5% CO2. On the day of assay, growth medium is removed, the cells are washed 2 times with wash buffer, and cells are incubated in dye loading buffer at 37° C., 5% CO2 for ˜1 hour. Following dye loading the cell plates are placed in a FLIPR Tetra instrument and while monitoring dye fluorescence (excitation […]), 10 uL of test substance at increasing concentrations is added, and fluorescence values are recorded for 4 min. Next, 10 uL of acetylcholine is added (final concentration calculated so as to achieve 20% of the maximum acetycholine response), and the fluorescence reading is continued for 3.5 min. In some cases, a third addition of acetylcholine (final concentration calculated to achieve 70% of the maximal acetylcholine response) is performed. The resulting dose response curves are fit to a 4 parameter logistic equation and the final result is determined as the inflection point (IP) of the curve
CHO-K1 cells stably transfected with human M4 receptor and chimeric G-protein Gαqi5 are thawed from liquid N2 storage, resuspended in growth medium, plated in black, clear bottom 384 well plates, and incubated 16-20 hours at 37° C., 5% CO2.
On the day of assay, growth medium is removed, the cells are washed 2 times with wash buffer, and cells are incubated in dye loading buffer at 37° C., 5% CO2 for ˜1 h. Following dye loading the cell plates are placed in a FLIPR Tetra instrument and while monitoring dye fluorescence ([…]), 10 uL of test substance at increasing concentrations is added, and fluorescence values are recorded for 4 min. Next, 10 uL of acetylcholine is added (final concentration calculated so as to achieve 20% of the maximum acetycholine response), and the fluorescence reading is continued for 3.5 min. In some cases, a third addition of acetylcholine (final concentration calculated to achieve 70% of the maximal acetylcholine response) is performed.
Consider `COc1ccc(OC2CCN(c3nc4c(cc3C)CN(C(=O)C3(C)CCCC3)C4)CC2)cn1` [Example 44, (2-(4-((6-methoxypyridin-3-yl)oxy)piperidin-1-yl)-3-methyl-5,7-dihydro-6H-pyrrolo[3,4-b]pyridin-6-yl)(1-methylcyclopentyl)methanone], for which the concentration for a half-maximal effect (EC50) is 489 nM.
For `Cc1cn2c(=O)n(C)nc2nc1N1CCC(OCC2(C)CC2)CC1` [Example 3, 2,6-Dimethyl-7-(4-((1-methylcyclopropyl)methoxy)piperidin-1-yl)-[1,2,4]triazolo[4,3-a]pyrimidin-3(2H)-one], the EC50 was found to be 79 nM.
With `COc1ccc(OC2CCN(c3nc4c(cc3C)C(=O)OC4)CC2)cn1` [Example 21, 2-(4-((6-Methoxypyridin-3-yl)oxy)piperidin-1-yl)-3-methylfuro[3,4-b]pyridin-5(7H)-one], the EC50 is 22 nM.
The result for `COc1ccc(OC2CCN(c3nc4c(cc3C)C(=O)OC4C)CC2)cn1` (racemic) [Example 29B, (R)-2-(4-((6-Methoxypyridin-3-yl)oxy)piperidin-1-yl)-3,7-dimethylfuro[3,4-b]pyridin-5(7H)-one and (S)-2-(4-((6-methoxypyridin-3-yl)oxy)piperidin-1-yl)-3,7-dimethylfuro[3,4-b]pyridin-5(7H)-one] reads 54 nM; that for `COc1ccc(OC2CCN(c3nc4c(cc3C)CN(C(=O)C3CC3)C4)CC2)cn1` [Example 41, cyclopropyl(2-(4-((6-methoxypyridin-3-yl)oxy)piperidin-1-yl)-3-methyl-5,7-dihydro-6H-pyrrolo[3,4-b]pyridin-6-yl)methanone], 153 nM.
For `Cc1cn2c(=O)[nH]nc2nc1N1CCC(Oc2cccc(C#N)c2)CC1` [Example 16, 3-((1-(6-methyl-3-oxo-2,3-dihydro-[1,2,4]triazolo[4,3-a]pyrimidin-7-yl)piperidin-4-yl)oxy)benzonitrile] the value was 35 nM; for `Cc1cc2c(=O)[nH][nH]c2nc1N1CCC(Oc2cccc(C#N)c2)CC1` [Example 22, 3-((1-(5-methyl-3-oxo 2,3-dihydro-1H-pyrazolo[3,4-b]pyridin-6-yl)piperidin-4-yl)oxy)benzonitrile], 57 nM.
For `COc1ccc(OC2CCN(c3nc4c(cc3C)CN(C(=O)[C@H](C)O)C4)CC2)cn1` [Example 51, (S)-2-hydroxy-1-(2-(4-((6-methoxypyridin-3-yl)oxy)piperidin-1-yl)-3-methyl-5,7-dihydro-6H-pyrrolo[3,4-b]pyridin-6-yl)propan-1-one] the value was 109 nM; for `COc1ccc(OC2CCN(c3nc4[nH][nH]c(=O)c4cc3C)CC2)cn1` [Example 23, 6-(4-((6-methoxypyridin-3-yl)oxy)piperidin-1-yl)-5-methyl-1,2-dihydro-3H-pyrazolo[3,4-b]pyridin-3-one], 68 nM.
Regarding `Cc1cn2c(=O)n(C)nc2nc1N1CCC(Oc2ccc3c(cnn3C)c2)CC1` [Example 9, 2,6-dimethyl-7-(4-((1-methyl-1H-indazol-5-yl)oxy)piperidin-1-yl)-[1,2,4]triazolo[4,3-a]pyrimidin-3(2H)-one], the concentration for a half-maximal effect (EC50) amounted to 112 nM.
The result for `COc1ccc(OC2CCN(c3nc4c(cc3C)CN(C(=O)CN(C)C)C4)CC2)cn1` [Example 54, 2-(dimethylamino)-1-(2-(4-((6-methoxypyridin-3-yl)oxy)piperidin-1-yl)-3-methyl-5,7-dihydro-6H-pyrrolo[3,4-b]pyridin-6-yl)ethan-1-one] reads 238 nM.
Take `COc1ccc(OC2CCN(c3nc4c(cc3C)CNC4=O)CC2)cn1` [Example 1, (4-((6-Methoxypyridin-3-yl)oxy)piperidin-1-yl)-3-methyl-5H-pyrrolo[3,4-b]pyridin-7(6H)-one]: the EC50 came out at 193 nM.
Regarding “(R)-2-(4-((1,3-dihydroisobenzofuran-5-yl)oxy)piperidin-1-yl)-3-methyl-8,9,10,10a-tetrahydropyrido[2′,3′:3,4]pyrrolo[1,2-a]pyrazin-5(7H)-one and (S)-2-(4-((1,3-dihydroisobenzofuran-5-yl)oxy)piperidin-1-yl)-3-methyl-8,9,10,10a-tetrahydropyrido[2′,3′:3,4]pyrrolo[1,2-a]pyrazin-5(7H)-one [Example 83B]”, the 50% effective concentration (EC50) was 25 nM.
For `COc1ccc(OC2CCN(c3nc4c(cc3C)C(=O)C(C)(C)C4)CC2)cn1` [Example 73, 2-(4-((6-Methoxypyridin-3-yl)oxy)piperidin-1-yl)-3,6,6-trimethyl-6,7-dihydro-5H-cyclopenta[b]pyridin-5-one] the value was 292 nM.
Regarding `Cc1cc2c(nc1N1CCC(Oc3ccccc3)CC1)CNS2(=O)=O` [Example 77, 6-methyl-5-(4-phenoxypiperidin-1-yl)-2,3-dihydroisothiazolo[4,5-b]pyridine 1,1-dioxide], the concentration for a half-maximal effect (EC50) is 275 nM.
Turning to `COc1ccc(OC2CCN(c3nc4nccn4cc3C)CC2)cn1` [Example 67, 7-(4-((6-methoxypyridin-3-yl)oxy)piperidin-1-yl)-6-methylimidazo[1,2-a]pyrimidine], the EC50 is 765 nM.
As for `COc1ccc(OC2CCN(c3nc4c(cc3C)C(=O)OC4(C)C)CC2)cn1` [Example 30, 2-(4-((6-methoxypyridin-3-yl)oxy)piperidin-1-yl)-3,7,7-trimethylfuro[3,4-b]pyridin-5(7H)-one], the EC50 is 856 nM.
Regarding `COc1ccc(OC2CCN(c3nc4c(cc3C)CN(Cc3ccncc3)C4=O)CC2)cn1` [Example 36, 2-(4-((6-Methoxypyridin-3-yl)oxy)piperidin-1-yl)-3-methyl-6-(pyridin-4-ylmethyl)-5,6-dihydro-7H-pyrrolo[3,4-b]pyridin-7-one], the concentration for a half-maximal effect (EC50) is 672 nM.
For `Cc1cc2c(nc1N1CCC(Oc3ccccc3)CC1)CN(S(C)(=O)=O)C2` [Example 60, 3-methyl-6-(methylsulfonyl)-2-(4-phenoxypiperidin-1-yl)-6,7-dihydro-5H-pyrrolo[3,4-b]pyridine] the value was 20 nM; for `Cc1cc2c(=O)[nH]n(C)c2nc1N1CCC(Oc2cccc(C#N)c2)CC1` [Example 26, 3-((1-(1,5-dimethyl-3-oxo-2,3-dihydro-1H-pyrazolo[3,4-b]pyridin-6-yl)piperidin-4-yl)oxy)benzonitrile], 208 nM.
With `COc1ccc(OC2CCN(c3nc4c(cc3C)CN(C(=O)C3CC(F)(F)C3)C4)CC2)cn1` [Example 49, (3,3-difluorocyclobutyl)(2-(4-((6-methoxypyridin-3-yl)oxy)piperidin-1-yl)-3-methyl-5,7-dihydro-6H-pyrrolo[3,4-b]pyridin-6-yl)methanone], the EC50 was 126 nM.
The result for `COc1ccc(OC2CCN(c3nc4c(cc3C)C(=O)OC4CO)CC2)cn1` (centres unmarked) [Example 33, 7-(Hydroxymethyl)-2-(4-((6-methoxypyridin-3-yl)oxy)piperidin-1-yl)-3-methylfuro[3,4-b]pyridin-5(7H)-one] reads 34 nM; that for `COc1ccc(OC2CCN(c3nc4c(cc3C)CN(C(=O)c3ccc[nH]3)C4)CC2)cn1` [Example 50, (2-(4-((6-methoxypyridin-3-yl)oxy)piperidin-1-yl)-3-methyl-5,7-dihydro-6H-pyrrolo[3,4-b]pyridin-6-yl)(1H-pyrrol-2-yl)methanone], 481 nM; that for “(R)-2-(4-((6-Methoxypyridin-3-yl)oxy)piperidin-1-yl)-3,7-dimethylfuro[3,4-b]pyridin-5(7H)-one and (S)-2-(4-((6-methoxypyridin-3-yl)oxy)piperidin-1-yl)-3,7-dimethylfuro[3,4-b]pyridin-5(7H)-one [Example 29A]”, 267 nM.
The result for `COc1ccc(OC2CCN(c3nc4c(C)n[nH]c4cc3C)CC2)cn1` [Example 65, 5-(4-((6-Methoxypyridin-3-yl)oxy)piperidin-1-yl)-3,6-dimethyl-1H-pyrazolo [4,3-b]pyridine] reads 1650 nM; that for `Cc1cn2c(=O)[nH]nc2nc1N1CCC(Oc2ccc3c(cnn3C)c2)CC1` [Example 18], 338 nM.

Source of the values: US11230556B2 (Merck Sharp & Dohme Corp., priority 2016, dated 2022).
